# “And” between values parts separate entries of the source, which are not always exact repeats. Equal values may be shown once.
# What was measured:
# [1] = biological target: Glycogen synthase kinase-3 beta (Homo sapiens, UniProt P49841); assay: TR-FRET Assay
# Protocol: (§1) The assay was performed in a white, 384 well, low volume, flat bottom plate (Grenier). […] The kinase activity was quenched with 2 μL of 250 mM EDTA. A 10 μL volume of 40 nM Strepavidin-d2, 2 nM Tb2+-pSer641 antibody in TR-FRET Detection Buffer (Invitrogen) was then added.
# [2] = biological target: Glycogen synthase kinase-3 alpha (Homo sapiens, UniProt P49840); assay: TR-FRET Assay
# Chain of Glycogen synthase kinase-3 alpha (P49840 whole entry): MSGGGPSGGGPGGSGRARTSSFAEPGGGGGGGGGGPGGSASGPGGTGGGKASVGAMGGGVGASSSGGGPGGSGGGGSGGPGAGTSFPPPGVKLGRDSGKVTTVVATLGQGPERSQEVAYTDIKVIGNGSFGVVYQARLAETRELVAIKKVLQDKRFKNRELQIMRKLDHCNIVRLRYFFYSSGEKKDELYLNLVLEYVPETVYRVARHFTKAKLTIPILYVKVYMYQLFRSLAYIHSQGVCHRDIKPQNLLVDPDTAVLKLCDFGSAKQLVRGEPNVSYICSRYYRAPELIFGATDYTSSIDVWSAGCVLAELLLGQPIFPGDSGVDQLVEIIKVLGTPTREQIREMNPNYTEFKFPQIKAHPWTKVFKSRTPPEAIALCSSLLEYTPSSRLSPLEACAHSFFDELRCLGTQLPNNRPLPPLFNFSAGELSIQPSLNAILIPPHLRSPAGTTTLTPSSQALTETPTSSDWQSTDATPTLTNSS
# Protocol: as §1
# Chain of Glycogen synthase kinase-3 beta (P49841 whole entry): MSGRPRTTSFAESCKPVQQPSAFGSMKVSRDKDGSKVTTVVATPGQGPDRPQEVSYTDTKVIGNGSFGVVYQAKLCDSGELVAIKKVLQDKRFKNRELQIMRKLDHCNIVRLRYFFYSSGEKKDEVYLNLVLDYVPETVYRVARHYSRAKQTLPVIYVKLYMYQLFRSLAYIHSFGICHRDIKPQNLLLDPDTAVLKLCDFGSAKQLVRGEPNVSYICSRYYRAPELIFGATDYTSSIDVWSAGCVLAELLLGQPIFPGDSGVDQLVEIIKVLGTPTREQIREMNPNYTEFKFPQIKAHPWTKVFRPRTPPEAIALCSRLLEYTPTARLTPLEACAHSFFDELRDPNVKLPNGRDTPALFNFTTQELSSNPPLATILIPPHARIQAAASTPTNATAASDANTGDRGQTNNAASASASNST
Structure (SMILES),IC50 [1],IC50 [2]
"CCN(c1cccc([C@]2(CC)C3=CN=NC3NC3=C2C(=O)CC(C)(C)C3)c1)c1ncccn1 (stereo partly drawn) [US20250313563, Compound 947334]",1000 to 5000 nM,100 to 1000 nM
"CC[C@]1(c2cccc(N3CCCC3)c2)C2=CN=NC2NC2=C1C(=O)CC(C)(C)C2 (stereo partly drawn) [US20250313563, Compound 810509]",> 5000 nM,> 5000 nM
"CN(C)S(=O)(=O)c1cccc([C@]2(C)C3=C(CC(C)(C)CC3=O)NC3=C2C(CC(C)(C)C)N=N3)c1 (stereo partly drawn) [US20250313563, Compound 126012]",100 to 1000 nM,1000 to 5000 nM
"CC[C@@]1(c2cccc(-c3ccnc(OC)c3F)c2)C2=CN=NC2NC2=C1C(=O)NC(C)(C)C2 (stereo partly drawn) [US20250313563, Compound 948531]",> 5000 nM,100 to 1000 nM
"CC1(C)CC(=O)C2=C(C1)NC1N=NC=C1[C@@]21CCCc2c(-c3ccncc3)cccc21 (stereo partly drawn) [US20250313563, Compound 945547]",> 5000 nM,1000 to 5000 nM
"CC1(C)CC(=O)C2=C(C1)NC1=C(CN=N1)[C@@]2(C)c1cccc(-c2ccccc2)c1 [US20250313563, Compound 801366]",> 5000 nM,> 5000 nM
"CCn1cc(N2CCC3=C(C2=O)[C@](CC)(c2cccc(C(F)(F)F)c2)C2=CN=NC2N3)cn1 (stereo partly drawn) [US20250313563, Compound 949868]",> 5000 nM,100 to 1000 nM
"CCN(c1cccnc1)c1cccc(C2(CC)C3=CN=NC3NC3=C2C(=O)CC(C)(C)C3)c1 (stereo not drawn) [US20250313563, Compound 885331]",< 100 nM,< 100 nM
"CC[C@]1(c2cccc(-c3ccnc4cnccc34)c2)C2=CN=NC2NC2=C1C(=O)NC(C)(C)C2 (stereo partly drawn) [US20250313563, Compound 948819]",> 5000 nM,1000 to 5000 nM
"CCC1(c2cccc(-c3cnn(C)c3)c2)C2=C(CC(C)(C)NC2=O)NC2N=NC(C)=C21 (stereo not drawn) [US20250313563, Compound 944027]",100 to 1000 nM,< 100 nM
"Cn1ccc(S(=O)(=O)N2CCC3(CC2)C2=C(N=NC2)NC2=C3C(=O)CC(C)(C)[C@@H]2F)n1 [US20250313563, Compound 951708]",100 to 1000 nM,< 100 nM
"CC[C@]1(c2cccc(C(F)(F)F)c2)C2=C(N=NC2)NC2=C1C(=O)N(C)C2 [US20250313563, Compound 945367]",1000 to 5000 nM,100 to 1000 nM
"CCC1(c2cccc(C(F)(F)F)c2)C2=CN=NC2NC2=C1C(=O)N(C(C)C)CC2 (stereo not drawn) [US20250313563, Compound 825755]",100 to 1000 nM,< 100 nM
"CC1(C)CC(=O)C2=C(C1)NC1=C(CN=N1)[C@@]21CCOC1 [US20250313563, Compound 877314]",1000 to 5000 nM,100 to 1000 nM
"CC1(C)CC(=O)C2=C(C1)NC1=C(CN=N1)C21CS(=O)(=O)C1 [US20250313563, Compound 912170]",> 5000 nM,1000 to 5000 nM
"CC[C@@]1(c2cccc(N3CCC[C@H]3C)c2)C2=CN=NC2NC2=C1C(=O)CC(C)(C)C2 (stereo partly drawn) [US20250313563, Compound 918322]",> 5000 nM,> 5000 nM
"CCC1(c2cccc(-c3ccncc3F)c2)C2=C(CC(C)(C)NC2=O)NC2N=NC(F)=C21 (stereo not drawn) [US20250313563, Compound 948999]",100 to 1000 nM,< 100 nM
"CC(C)(C)CC1N=NC2=C1C1(CN(S(=O)(=O)CC3CC3)C1)C1=C(CC3(CCC3)CC1=O)N2 (stereo not drawn) [US20250313563, Compound 107829]",100 to 1000 nM,1000 to 5000 nM
"CC[C@]1(c2cccc(-c3ccncc3CO)c2)C2=CN=NC2NC2=C1C(=O)CC(C)(C)C2 (stereo partly drawn) [US20250313563, Compound 945469]",< 100 nM,< 100 nM
"CC1(C)CC(=O)C2=C(C1)NC1N=NC(Br)=C1C21CCc2c(F)cccc21 (stereo not drawn) [US20250313563, Compound 801358]",< 100 nM,< 100 nM

Structure (SMILES),IC50 [1],IC50 [2]
"CC[C@@]1(c2cccc(C3=C4CC=CC(C)=C4N=CC3)c2)C2=CN=NC2NC2=C1C(=O)NC(C)(C)C2 (stereo partly drawn) [US20250313563, Compound 952909]",100 to 1000 nM,< 100 nM
"CC[C@@]1(c2cccc(-c3cnn(C)c3C(F)(F)F)c2)C2=CN=NC2NC2=C1C(=O)NC(C)(C)C2 (stereo partly drawn) [US20250313563, Compound 948815]",100 to 1000 nM and > 5000 nM,< 100 nM and 100 to 1000 nM
"CCC1(c2cccc(N3CCNCC3)c2)C2=CN=NC2NC2=C1C(=O)CC(C)(C)C2 (stereo not drawn) [US20250313563, Compound 806604]",> 5000 nM,> 1670 nM
"CC1(C)CC(=O)C2=C(C1)NC1=C(CN=N1)C21CCN(S(=O)(=O)c2cnn(CC(F)(F)F)c2)CC1 [US20250313563, Compound 948123]",< 100 nM and 100 to 1000 nM,< 100 nM and 100 to 1000 nM
"CC1(C)CC(=O)C2=C(C1)NC1=C(CN=N1)C21CNC1 [US20250313563, Compound 912075]",> 5000 nM,1000 to 5000 nM
"CCC1(c2cccc(-c3c(C)nn(C)c3C)c2)C2=C(CC(C)(C)CC2=O)NC2N=NC(C)=C21 (stereo not drawn) [US20250313563, Compound 883995]",< 100 nM,< 100 nM
"CC1(C)CC(=O)C2=C(C1)NC1=C(CN=N1)[C@@]21CCOC2(CCCC2)C1 [US20250313563, Compound 907326]",1000 to 5000 nM,100 to 1000 nM
"CCC1(c2cccc(N(C(C)=O)C(C)C)c2)C2=CN=NC2NC2=C1C(=O)CC(C)(C)C2 (stereo not drawn) [US20250313563, Compound 893305]",< 100 nM,< 100 nM
"CCC1(c2cccc(NC(C)=O)c2)C2=CN=NC2NC2=C1C(=O)CC(C)(C)C2 (stereo not drawn) [US20250313563, Compound 877310]",100 to 1000 nM,< 100 nM
"CCC1(c2cccc(OC)c2)C2=CN=NC2NC2=C1C(=O)CC(C)(C)C2 (stereo not drawn) [US20250313563, Compound 801447]",1000 to 5000 nM,100 to 1000 nM
"CC[C@]1(c2cccc(-c3cc[n+]([O-])c(C)c3)c2)C2=CN=NC2NC2=C1C(=O)CC(C)(C)C2 (stereo partly drawn) [US20250313563, Compound 946055]",1000 to 5000 nM,100 to 1000 nM
"CC1(C)CC(=O)C2=C(C1)NC1=C(CN=N1)C21CCN(S(=O)(=O)c2ccc3c(c2)CCO3)CC1 [US20250313563, Compound 913251]",< 100 nM,< 100 nM
"CC[C@]1(c2cccc(OC)c2)C2=CN=NC2NC2=C1C(=O)CC(C)(C)C2 (stereo partly drawn) [US20250313563, Compound 811561]",> 5000 nM,1000 to 5000 nM
"CC[C@@]1(c2cccc(-c3ccnc4c3CCCC4)c2)C2=C(N=NC2)NC2=C1C(=O)N(Cc1ccccc1)C2 [US20250313563, Compound 948552]",> 5000 nM,100 to 1000 nM
"CC1(C)CC(=O)C2=C(C1)NC1=C(CN=N1)C21CCS(=O)(=O)CC1 [US20250313563, Compound 896013]",100 to 1000 nM,100 to 1000 nM
"C[C@H]1CC[C@@]2(C1)C1=C(N=NC1)NC1=C2C(=O)CC(C)(C)C1 [US20250313563, Compound 883840]",100 to 1000 nM,100 to 1000 nM
"CC[C@]1(c2cccc(-c3ccnc(C)c3OC)c2)C2=CN=NC2NC2=C1C(=O)CC(C)(C)C2 (stereo partly drawn) [US20250313563, Compound 946002]",> 5000 nM,> 5000 nM
"CC[C@@]1(c2ccccc2)C2=C(CC(C)(C)CC2=O)NC2N=NC(Br)=C21 (stereo partly drawn) [US20250313563, Compound 792340]",< 100 nM and 100 to 1000 nM,< 100 nM and 100 to 1000 nM
"CC[C@@]1(c2cccc(-c3ccnc(C)c3)c2)C2=C(N=NC2)NC2=C1C[C@@H]1CC[C@H]2C1 [US20250313563, Compound 943920]",> 5000 nM,1000 to 5000 nM

# Reference: BindingDB's records for patent US20250313563 (The Broad Institute, 2025)
